Tested on: NOMO1
Assay: cell viability relative to DMSO control; higher = less cytotoxic
Settings: 48 h
Method in brief: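 Viability values are per-plate percentages of DMSO wells, with background from cell-free wells. Library compounds in DMSO were pin-dosed, in an 11-point threefold series from 47 μM to 0.79 nM, onto NOMO1 or SEM (500 cells/well) or P12-Ichikawa (1000 cells/well) leukemia cells in 1536-well plates (5 μl). Those cells had been adapted for at least four passages in each medium, and CellTiter-Glo One luminescence was read after 48 h at 37°C.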

[1] = HPLM + 10% dialyzed FBS, 0.000781 µM
[2] = HPLM + 10% dialyzed FBS, 0.00234 µM
[3] = HPLM + 10% dialyzed FBS, 0.00702 µM
[4] = HPLM + 10% dialyzed FBS, 0.0211 µM
[5] = HPLM + 10% dialyzed FBS, 0.0632 µM
[6] = HPLM + 10% dialyzed FBS, 0.19 µM
[7] = HPLM + 10% dialyzed FBS, 0.569 µM
[8] = HPLM + 10% dialyzed FBS, 1.71 µM
[9] = HPLM + 10% dialyzed FBS, 5.12 µM
[10] = HPLM + 10% dialyzed FBS, 15.4 µM
[11] = HPLM + 10% dialyzed FBS, 46.1 µM
[12] = RPMI 5 mM glucose + 10% FBS, 0.000781 µM
[13] = RPMI 5 mM glucose + 10% FBS, 0.00234 µM
[14] = RPMI 5 mM glucose + 10% FBS, 0.00702 µM
[15] = RPMI 5 mM glucose + 10% FBS, 0.0211 µM
[16] = RPMI 5 mM glucose + 10% FBS, 0.0632 µM
[17] = RPMI 5 mM glucose + 10% FBS, 0.19 µM
[18] = RPMI 5 mM glucose + 10% FBS, 0.569 µM
[19] = RPMI 5 mM glucose + 10% FBS, 1.71 µM
[20] = RPMI 5 mM glucose + 10% FBS, 5.12 µM
[21] = RPMI 5 mM glucose + 10% FBS, 15.4 µM
[22] = RPMI 5 mM glucose + 10% FBS, 46.1 µM
[23] = RPMI 5 mM glucose + 10% dialyzed FBS, 0.000781 µM
[24] = RPMI 5 mM glucose + 10% dialyzed FBS, 0.00234 µM
[25] = RPMI 5 mM glucose + 10% dialyzed FBS, 0.00702 µM
[26] = RPMI 5 mM glucose + 10% dialyzed FBS, 0.0211 µM
[27] = RPMI 5 mM glucose + 10% dialyzed FBS, 0.0632 µM
[28] = RPMI 5 mM glucose + 10% dialyzed FBS, 0.19 µM
[29] = RPMI 5 mM glucose + 10% dialyzed FBS, 0.569 µM
[30] = RPMI 5 mM glucose + 10% dialyzed FBS, 1.71 µM
[31] = RPMI 5 mM glucose + 10% dialyzed FBS, 5.12 µM
[32] = RPMI 5 mM glucose + 10% dialyzed FBS, 15.4 µM
[33] = RPMI 5 mM glucose + 10% dialyzed FBS, 46.1 µM

SMILES | cell viability [1] | cell viability [2] | cell viability [3] | cell viability [4] | cell viability [5] | cell viability [6] | cell viability [7] | cell viability [8] | cell viability [9] | cell viability [10] | cell viability [11] | cell viability [12] | cell viability [13] | cell viability [14] | cell viability [15] | cell viability [16] | cell viability [17] | cell viability [18] | cell viability [19] | cell viability [20] | cell viability [21] | cell viability [22] | cell viability [23] | cell viability [24] | cell viability [25] | cell viability [26] | cell viability [27] | cell viability [28] | cell viability [29] | cell viability [30] | cell viability [31] | cell viability [32] | cell viability [33]
Cc1nnc(C(=O)NC(C)(C)c2nc(C(=O)NCc3ccc(F)cc3)c(O)c(=O)n2C)o1 | 121% | 112% | 119% | 118% | 104% | 103% | 106% | 101% | 95.6% | 97.9% | 96.6% | 87.6% | 99.4% | 96.8% | 92.4% | 96.7% | 99.1% | 100% | 91.2% | 86.5% | 92.2% | 93.3% | 93.7% | 100% | 107% | 93.1% | 109% | 96.6% | 95% | 96.8% | 93.7% | 104% | 94.5%
Cc1ccc(C(=O)Nc2ccc([S+](=O)([O-])O)c3cc([S+](=O)([O-])O)cc([S+](=O)([O-])O)c23)cc1NC(=O)c1cccc(NC(=O)Nc2cccc(C(=O)Nc3cc(C(=O)Nc4ccc([S+](=O)([O-])O)c5cc([S+](=O)([O-])O)cc([S+](=O)([O-])O)c45)ccc3C)c2)c1 | 95.4% | 93.6% | 96.9% | 90.1% | 91.5% | 71.9% | 69.3% | 73.6% | 40.8% | 37.1% | 38.4% | 89.4% | 83.9% | 107% | 89.7% | 90.4% | 85.9% | 84.7% | 90.4% | 75.6% | 69% | 62.2% | 91.9% | 91% | 93.1% | 101% | 76.9% | 85.8% | 87.6% | 88.9% | 76.9% | 56.3% | 52.5%
NC[C@H](O)c1ccc(O)c(O)c1 | 115% | 117% | 119% | 104% | 120% | 104% | 90.7% | 85.7% | 97.7% | 86.9% | 72.4% | 96.7% | 86.8% | 112% | 95.7% | 105% | 91% | 87.3% | 91.2% | 99.2% | 97.5% | 78% | 93.2% | 90.3% | 99% | 91% | 88.1% | 85.4% | 86.6% | 93.4% | 83.3% | 88.6% | 87.7%
CC1(C)[C@@H](O)CC[C@@]2(C)[C@H]1CC[C@]3(C)[C@@H]2C(=O)\C=C/4[C@@H]5C[C@](C)(CC[C@]5(C)CC[C@@]34C)C(O)=O | 102% | 113% | 120% | 127% | 116% | 113% | 118% | 118% | 116% | 124% | 112% | 110% | 99.1% | 110% | 116% | 95.7% | 103% | 102% | 95% | 98.1% | 93.9% | 86.8% | 104% | 108% | 117% | 115% | 115% | 103% | 116% | 117% | 92% | 97.7% | 97.9%
Cc1nc(-c2ccc(-c3ccc(C(=O)N4CCc5cc6c(cc54)C4(CCN(C)CC4)CO6)cc3)c(C)c2)no1 | 92.2% | 119% | 105% | 124% | 136% | 131% | 128% | 129% | 127% | 127% | 135% | 107% | 120% | 111% | 104% | 116% | 115% | 128% | 104% | 110% | 111% | 112% | 104% | 111% | 116% | 104% | 101% | 131% | 135% | 118% | 122% | 117% | 118%
CCC[C@H](Nc1nc(-c2ccc(NC(=O)NCC)c(OC)c2)ncc1C)c1cccnc1 | 119% | 109% | 115% | 126% | 47.8% | 41.7% | 44.2% | 48.7% | 45.8% | 48.4% | 39.7% | 114% | 112% | 129% | 115% | 50% | 31.5% | 33.8% | 26.4% | 27.8% | 30.9% | 25.7% | 105% | 120% | 122% | 125% | 34.6% | 35.3% | 39.2% | 31.2% | 23.9% | 31.1% | 28.7%
OC1CCC(CC1)N2\C=N/C3=C(C2=N)C(=C([N]3CC4=CC=CC=C4)C5=CC=CC=C5)C6=CC=CC=C6 (configuration not stated) | 115% | 133% | 121% | 144% | 142% | 130% | 130% | 93.8% | 81% | 74.9% | 9.01% |  |  |  |  |  |  |  |  |  |  |  |  |  |  |  |  |  |  |  |  |  | 
C=C1CCC2[C@](C)(CO)C(O)CC[C@]2(C)C1C/C=C1/C(=O)OCC1O (some centres not stated) |  |  |  |  |  |  |  |  |  |  |  | 111% | 109% | 115% | 101% | 114% | 113% | 99.3% | 105% | 97.5% | 104% | 98.4% | 121% | 104% | 114% | 110% | 118% | 107% | 105% | 109% | 95.5% | 101% | 96.9%
CNC(=O)c1nn(C)c2c1C(C)(C)Cc1cnc(Nc3ccc(N4CCN(C)CC4)cc3)nc1-2 | 125% | 108% | 104% | 104% | 99.7% | 113% | 103% | 65.8% | 55.6% | 47.8% | 8.74% | 111% | 114% | 103% | 107% | 115% | 111% | 100% | 86.6% | 78.8% | 48.3% | 13.2% | 113% | 102% | 107% | 106% | 118% | 108% | 103% | 75.6% | 66% | 46.8% | 8.73%
COc1cc2c(cc1OC)CN(CCc1ccc(NC(=O)c3cccc4c(=O)c5cccc(OC)c5[nH]c34)cc1)CC2 | 97.2% | 96.8% | 114% | 121% | 122% | 121% | 109% | 45% | 29.8% | 16.8% | 11.3% | 123% | 112% | 127% | 118% | 119% | 116% | 122% | 112% | 62.8% | 23.7% | 14.1% | 112% | 114% | 127% | 113% | 130% | 130% | 133% | 133% | 52.3% | 35.2% | 24.2%
Cc1nnc(C(C)C)n1[C@@H]1C[C@H]2CC[C@@H](C1)N2CC[C@H](NC(=O)C1CCC(F)(F)CC1)c1ccccc1 | 70.8% | 93.7% | 112% | 93.1% | 98.7% | 103% | 107% | 104% | 103% | 84.5% | 25.5% | 83.6% | 82.9% | 95.2% | 91.3% | 84.5% | 99.9% | 92% | 88.5% | 84.3% | 91.3% | 26.3% | 68.3% | 93.2% | 82.6% | 84.8% | 93.2% | 95.5% | 95.1% | 90.3% | 84.4% | 67.1% | 29.9%
COc1ccc(/C=C/C(=O)Nc2ccccc2C(=O)O)cc1OC | 119% | 105% | 120% | 149% | 112% | 117% | 119% | 78.8% | 120% | 73.7% | 86.9% | 108% | 111% | 108% | 109% | 114% | 110% | 105% | 95% | 112% | 92.3% | 87.5% | 104% | 114% | 118% | 94.8% | 104% | 128% | 105% | 110% | 104% | 104% | 83.8%
O=C1\C=C(OC2=C(C=CC=C12)C3=CC=CC4=C3SC5=C4C=CC=C5)\N6CCOCC6 | 123% | 123% | 129% | 128% | 135% | 121% | 135% | 133% | 114% | 132% | 112% |  |  |  |  |  |  |  |  |  |  |  | 113% | 121% | 125% | 131% | 128% | 129% | 133% | 136% | 116% | 117% | 107%
N#Cc1cc(NC(=O)Nc2nnc(-c3ccncc3)s2)ccc1-c1cn[nH]c1 | 117% | 118% | 115% | 110% | 116% | 114% | 113% | 130% | 121% | 123% | 106% | 108% | 100% | 114% | 124% | 114% | 115% | 99.6% | 114% | 105% | 127% | 101% |  |  |  |  |  |  |  |  |  |  | 
